Converted amounts (≈) assume the structure as drawn.
Experiments:
[1] = Cytotoxicity against mouse RAW264.7 cells assessed as reduction in cell viability incubated for 48 hrs by MTT assay; format: cell-based
Staphylococcus aureus = assay: Antibacterial activity against Staphylococcus aureus ATCC 25923 incubated for 24 hrs by broth microdilution method; format: functional; conditions: ATCC 25923, 24 h
Pseudomonas aeruginosa = assay: Antibacterial activity against Pseudomonas aeruginosa ATCC 27853 incubated for 24 hrs by broth microdilution method; format: functional; conditions: ATCC 27853, 24 h
Plasmodium falciparum = assay: Antiplasmodial activity against chloroquine-resistant Plasmodium falciparum FcB1 infected in RBC (unknown origin) incubated for 48 hrs by SYBR green dye based fluorescence analysis; format: functional, organism-based; conditions: FcB1, 48 h
Leishmania infantum = assay: Antileishmanial activity against Leishmania infantum MHOM/MA/67/ITMAP-263 axenic amastigotes assessed as inhibition of parasitic metabolic activity incubated for 48 hrs by steady Glow reagent based luminescence assay; format: functional, organism-based; conditions: MHOM/MA/67/ITMAP-263, 48 h
Escherichia coli = assay: Antibacterial activity against Escherichia coli ATCC 25922 incubated for 24 hrs by broth microdilution method; format: functional; conditions: ATCC 25922, 24 h
Helicobacter pylori = assay: Antibacterial activity against Helicobacter pylori CIP 103995 incubated for 72 hrs under microaerophilic conditions by broth microdilution method; format: functional; conditions: CIP 103995, 72 h

| SMILES | CC50 at 48 h [1] [µM] | MIC (Staphylococcus aureus) [µg/mL] | MIC (Pseudomonas aeruginosa) [µg/mL] | IC50 (Plasmodium falciparum) [µM] | IC50 (Leishmania infantum) [µM] | MIC (Escherichia coli) [µg/mL] | MIC (Helicobacter pylori) [µg/mL] |
| --- | --- | --- | --- | --- | --- | --- | --- |
| C=C(C(C)C)[C@H](O)C[C@@H](C)[C@H]1CC[C@@]2(C)[C@@H]3CC[C@H]4[C@H](C)[C@@H](O[C@@H]5O[C@@H](C)[C@H](O)[C@@H](O)[C@H]5O)CC[C@]4(O)CC3=CC[C@]12C | 35.1 | > 125 | > 125 | 55 | 6.7 | > 125 | 31.3 (≈ 51.7 µM) |
| COc1cccc2c1C(=O)c1c(O)c3c(c(O)c1C2=O)C[C@@](O)(C(=O)CO)C[C@@H]3O[C@H]1C[C@H](N)[C@H](O)[C@H](C)O1 [DOXORUBICIN] | 0.8 |  |  |  |  |  |  |
| C/C=C(\C(C)C)[C@H](O)C[C@@H](C)[C@H]1CC[C@@]2(C)[C@@H]3CC[C@H]4[C@H](C)[C@@H](O[C@@H]5OC[C@H](O)[C@H](O)[C@H]5O)CC[C@]4(O)CC3=CC[C@]12C | 19.6 | 31.3 (≈ 51.7 µM) | > 125 | 53.7 | 6.3 | > 125 | 15.6 (≈ 25.8 µM) |
| C=C(C(C)C)[C@H](O)C[C@@H](C)[C@H]1CC[C@@]2(C)[C@@H]3CC[C@H]4[C@H](C)[C@@H](O[C@@H]5OC[C@@H](O)[C@H](O)[C@H]5O)CC[C@]4(O)CC3=CC[C@]12C | 24.2 | 62.5 (≈ 106 µM) | > 125 | > 150 | 5 | > 125 | 15.6 (≈ 26.4 µM) |
| C/C=C(\C(C)C)[C@H](O)C[C@@H](C)[C@H]1CC[C@@]2(C)[C@@H]3CC[C@H]4[C@H](C)[C@@H](O[C@@H]5OC[C@@H](O)[C@H](O)[C@H]5O)CC[C@]4(O)CC3=CC[C@]12C | 30.3 | > 125 | > 125 | 46.9 | 5.2 | > 125 | 15.6 (≈ 25.8 µM) |
| CC[C@H]1OC(=O)[C@H](C)[C@@H](O[C@H]2C[C@@](C)(OC)[C@@H](O)[C@H](C)O2)[C@H](C)[C@@H](O[C@@H]2O[C@H](C)C[C@H](N(C)C)[C@H]2O)[C@](C)(OC)C[C@@H](C)C(=O)[C@H](C)[C@@H](O)[C@]1(C)O [CLARITHROMYCIN] |  |  |  |  |  |  | 0.01 (≈ 0.0134 µM) |
| C[C@@H]1[C@H](O)[C@@H](C)/C=C/C=C/C=C/C=C/C=C/C=C/C=C/[C@H](O[C@@H]2O[C@H](C)[C@@H](O)[C@H](N)[C@@H]2O)C[C@@H]2O[C@](O)(C[C@@H](O)C[C@@H](O)[C@H](O)CC[C@@H](O)C[C@@H](O)CC(=O)O[C@H]1C)C[C@H](O)[C@H]2C(=O)O [AMPHOTERICIN B] |  |  |  |  | 0.07 |  |  |
| C/C=C(\C(C)C)[C@H](O)C[C@@H](C)[C@H]1CC[C@@]2(C)[C@@H]3CC[C@H]4[C@H](C)[C@@H](O[C@@H]5O[C@@H](C)[C@H](O)[C@@H](O)[C@H]5O)CC[C@]4(O)CC3=CC[C@]12C | 21.9 | > 125 | > 125 | 61.3 | 5.2 | > 125 | 31.3 (≈ 50.6 µM) |
| C=C(C(C)C)[C@H](O)C[C@@H](C)[C@H]1CC[C@@]2(C)[C@@H]3CC[C@H]4[C@H](C)[C@@H](O[C@@H]5OC[C@H](O)[C@H](O)[C@H]5O)CC[C@]4(O)CC3=CC[C@]12C | 26.6 | 31.3 (≈ 53 µM) | > 125 | 52.4 | 7.7 | > 125 | 15.6 (≈ 26.4 µM) |
| CN(C)[C@@H]1C(O)=C(C(N)=O)C(=O)[C@@]2(O)C(O)=C3C(=O)c4c(O)cccc4[C@@](C)(O)[C@H]3C[C@@H]12 [TETRACYCLINE] |  | 0.5 (≈ 1.13 µM) | 16 (≈ 36 µM) |  |  | 2 (≈ 4.5 µM) |  |

Reference: ChEMBL document CHEMBL4414669, “Structural Characterization and Anti-infective Activity of 9,10-Seco-29-norcycloartane Glycosides Isolated from the Flowers of the Peruvian Medicinal Plant Cordia lutea” (J Nat Prod, 2019)
